Literature values in PMC12697872, “Rethinking the AI Paradigm for Solubility Prediction of Drug‑Like Compounds with Dual‐Perspective Modeling and Experimental Validation” (Advanced Science, 2025).

Settings: experimental aqueous solubility as logS, sheet "DrugBank" of Supplement 2; ref DrugBank; cited from earlier work

SMILES	ex_logS
CC(C)NCC1CCc2cc(CO)c([N+](=O)[O-])cc2N1 (centres unmarked) [Oxamniquine]	-2.532
C[C@]12C/C(=C/O)C(=O)C[C@@H]1CC[C@@H]1[C@@H]2CC[C@@]2(C)[C@H]1CC[C@]2(C)O [Oxymetholone]	-4.805
CN1CCCN=C1COC(=O)C(O)(c1ccccc1)C1CCCCC1 (centres unmarked) [Oxyphencyclimine]	-4.717
O=Cc1ccc(O)cc1 [P-Hydroxybenzaldehyde]	-1.16
CCC1(C)OC(=O)N(C)C1=O (centres unmarked) [Paramethadione]	-1.272
CN1C(=O)CC(c2ccccc2)C1=O (centres unmarked) [Phensuximide]	-1.431
CNC(=O)Oc1ccc2c(c1)[C@]1(C)CCN(C)[C@@H]1N2C [Physostigmine]	-1.55
C[C@]12CC[C@H](O)CC1=CC[C@@H]1[C@@H]2CC[C@]2(C)C(=O)CC[C@@H]12 [Prasterone]	-3.657
O=C(C1CCCCC1)N1CC(=O)N2CCc3ccccc3C2C1 (centres unmarked) [Praziquantel]	-2.893
CCCNC(C)C(=O)Nc1ccccc1C (centres unmarked) [Prilocaine]	-2.61
NC(=O)CCC/N=C(\c1ccc(Cl)cc1)c1cc(F)ccc1O [Progabide]	-3.674
CC(C)NCC(O)COc1cccc2ccccc12 (centres unmarked) [Propranolol]	-3.624
Cc1ncc(CO)c(C=O)c1O [Pyridoxal]	0.4758
CO[C@H]1/C=C/O[C@@]2(C)Oc3c(C)c(O)c4c(c3C2=O)C2=NC3(CCN(CC(C)C)CC3)NC2=C(NC(=O)/C(C)=C\C=C\[C@H](C)[C@H](O)[C@@H](C)[C@@H](O)[C@@H](C)[C@H](OC(C)=O)[C@@H]1C)C4=O [Rifabutin]	-3.649
Nc1ccc(S(=O)(=O)Nc2ncccn2)cc1 [Sulfadiazine]	-3.512
CP(=O)(O)C1=CCNCC1 [TPMPA]	-1
C[C@]1(Cn2ccnn2)[C@H](C(=O)O)N2C(=O)C[C@H]2S1(=O)=O [Tazobactam]	-0.7786
Cn1nnc2c(C(N)=O)ncn2c1=O [Temozolomide]	-1.581
C[C@]12C=CC(=O)C=C1CC[C@@H]1[C@@H]2CC[C@]2(C)OC(=O)CC[C@@H]12 [Testolactone]	-4.04
O=C1CCC(N2C(=O)c3ccccc3C2=O)C(=O)N1 (centres unmarked) [Thalidomide]	-2.676
Cn1c(=O)c2[nH]cnc2n(C)c1=O [Theophylline]	-1.389
c1ccc2[nH]c(-c3cscn3)nc2c1 [Thiabendazole]	-3.605
C=CCC1(C(C)CCC)C(=O)N=C(S)NC1=O (centres unmarked) [Thiamylal]	-3.7117
Cc1cccc(N(C)C(=S)Oc2ccc3ccccc3c2)c1 [Tolnaftate]	-6.641
CC1(C)O[C@@H]2[C@@H](CO[C@@]3(COS(N)(=O)=O)OC(C)(C)O[C@@H]23)O1 [Topiramate]	-1.539
CN1C(=O)OC(C)(C)C1=O [Trimethadione]	-0.4568

Same assay, conditions: experimental aqueous solubility as logS, sheet "DrugBank"; ref DrugBank database; cited from earlier work

SMILES	ex_logS
CN[C@H](CC(C)C)C(=O)N[C@H]1C(=O)N[C@@H](CC(N)=O)C(=O)N[C@H]2C(=O)N[C@H]3C(=O)N[C@H](C(=O)N[C@H](C(=O)O)c4cc(O)cc(O)c4-c4cc3ccc4O)[C@H](O[C@H]3C[C@](C)(N)[C@@H](O)[C@H](C)O3)c3ccc(c(Cl)c3)Oc3cc2cc(c3O[C@@H]2O[C@H](CO)[C@@H](O)[C@H](O)[C@H]2O[C@H]2C[C@](C)(NCc3ccc(-c4ccc(Cl)cc4)cc3)[C@@H](O)[C@H](C)O2)Oc2ccc(cc2Cl)[C@H]1O [Oritavancin]	-2.2536
C[C@@H]1O[C@@H](O[C@H]2C[C@@H](O)[C@]3(CO)[C@H]4[C@H](O)C[C@]5(C)[C@@H](C6=CC(=O)OC6)CC[C@]5(O)[C@@H]4CC[C@]3(O)C2)[C@H](O)[C@H](O)[C@H]1O [Ouabain]	-1.754
Cc1onc(-c2ccccc2)c1C(=O)N[C@@H]1C(=O)N2[C@@H]1SC(C)(C)[C@@H]2C(=O)O [Oxacillin]	-4.4606
CN1CC[C@]23c4c5ccc(O)c4O[C@H]2C(=O)CC[C@@]3(O)[C@H]1C5 [Oxymorphone]	-1.099
CN(C)[C@@H]1C(O)=C(C(N)=O)C(=O)[C@@]2(O)C(O)=C3C(=O)c4c(O)cccc4[C@@](C)(O)[C@H]3[C@H](O)[C@@H]12 [Oxytetracycline]	-3.168
CC1(C)CCC(C)(C)c2cc(Cn3cccn3)c(/C=C/c3ccc(C(=O)O)cc3)cc21 [Palovarotene]	-7.016
Nc1nc2c(ncn2CCC(CO)CO)c(=O)[nH]1 [Penciclovir]	-2.173
OC[C@H]1O[C@@H](n2cnc3c2NC=NC[C@H]3O)C[C@@H]1O [Pentostatin]	-0.9514
C1CCC(C(CC2CCCCN2)C2CCCCC2)CC1 (centres unmarked) [Perhexiline]	-6.659
NNCCc1ccccc1 [Phenelzine]	-0.6703
CCC(c1ccccc1)c1c(O)c2ccccc2oc1=O (centres unmarked) [Phenprocoumon]	-4.337
N[C@@H](Cc1ccccc1)C(=O)O [Phenylalanine]	-0.7882
OCCc1ccccc1 [Phenylethyl alcohol]	-0.7406
O=c1[nH]c2ccccc2n1C1CCN(CCCC(c2ccc(F)cc2)c2ccc(F)cc2)CC1 [Pimozide]	-4.664
O=C(CCBr)N1CCN(C(=O)CCBr)CC1 [Pipobroman]	-2.155
CCCN(CCC)S(=O)(=O)c1ccc(C(=O)O)cc1 [Probenecid]	-4.022
CCN(CC)C(C)CN1c2ccccc2Sc2ccccc21 (centres unmarked) [Profenamine]	-5.654
[H]/N=C(\N/C(=N/[H])Nc1ccc(Cl)cc1)NC(C)C [Proguanil]	-3.211
CN(C)CCCN1c2ccccc2Sc2ccccc21 [Promazine]	-4.302
CC(CN1c2ccccc2Sc2ccccc21)N(C)C (centres unmarked) [Promethazine]	-4.261
CCC(=O)c1ccc2c(c1)N(CC(C)N(C)C)c1ccccc1S2 (centres unmarked) [Propiomazine]	-5.875
C=CC1=C(C)c2cc3[nH]c(cc4nc(cc5[nH]c(cc1n2)c(C)c5CCC(=O)O)C(CCC(=O)O)=C4C)c(C)c3C=C [Protoporphyrin]	-3.522
CNCCCC1c2ccccc2C=Cc2ccccc21 [Protriptyline]	-5.404
NC(=O)c1cnccn1 [Pyrazinamide]	-0.9142
Cc1ncc(CO)c(CO)c1O [Pyridoxine]	0.1141
CCc1nc(N)nc(N)c1-c1ccc(Cl)cc1 [Pyrimethamine]	-3.313
O=C(O)c1ccc2ccccc2n1 [Quinaldic Acid]	-1.092

SMILES	ex_logS
O=C(O)c1cccnc1C(=O)O [Quinolinic Acid]	-1.182
CCOC(=O)[C@H](CCc1ccccc1)N[C@@H](C)C(=O)N1[C@H](C(=O)O)C[C@@H]2CCC[C@@H]21 [Ramipril]	-5.076
CO[C@H]1/C=C/O[C@@]2(C)Oc3c(C)c(O)c4c(O)c(c(/C=N/N5CCN(C)CC5)c(O)c4c3C2=O)NC(=O)/C(C)=C\C=C\[C@H](C)[C@H](O)[C@@H](C)[C@@H](O)[C@@H](C)[C@H](OC(C)=O)[C@@H]1C [Rifampicin]	-2.769
COC(=O)N(C)c1c(N)nc(-c2nn(Cc3ccccc3F)c3ncccc23)nc1N [Riociguat]	-5.024
Cc1nc2n(c(=O)c1CCN1CCC(c3noc4cc(F)ccc34)CC1)CCCC2 [Risperidone]	-2.246
CCn1cc(C(=O)O)c(=O)c2ccc(-c3ccncc3)cc21 [Rosoxacin]	-4.149
C[C@@H]1O[C@@H](OC[C@H]2O[C@@H](Oc3c(-c4ccc(O)c(O)c4)oc4cc(O)cc(O)c4c3=O)[C@H](O)[C@@H](O)[C@@H]2O)[C@H](O)[C@H](O)[C@H]1O [Rutin]	-3.689
NC(=O)c1ccccc1O [Salicylamide]	-1.823
O=C(O)c1ccccc1O [Salicylic acid]	-1.79
C=CC(=O)N1CCN(c2nc(=O)n(-c3c(C)ccnc3C(C)C)c3nc(-c4c(O)cccc4F)c(F)cc23)[C@@H](C)C1 [Sotorasib]	-4.272
OC[C@H]1O[C@@](CO)(O[C@H]2O[C@H](CO)[C@@H](O)[C@H](O)[C@H]2O)[C@@H](O)[C@@H]1O [Sucrose]	0.7878
COc1cc(NS(=O)(=O)c2ccc(N)cc2)nc(OC)n1 [Sulfadimethoxine]	-2.957
Nc1ccc(S(=O)(=O)Nc2ccnn2-c2ccccc2)cc1 [Sulfaphenazole]	-2.321
Nc1ccc(S(=O)(=O)Nc2nccs2)cc1 [Sulfathiazole]	-2.835
Nc1c2c(nc3ccccc13)CCCC2 [Tacrine]	-2.961
Cn1nnc(-c2ccc(-c3ccc(N4C[C@H](CO)OC4=O)cc3F)cn2)n1 [Tedizolid]	-3.569
CCC[C@H](NC(=O)[C@@H]1[C@H]2CCC[C@H]2CN1C(=O)[C@@H](NC(=O)[C@@H](NC(=O)c1cnccn1)C1CCCCC1)C(C)(C)C)C(=O)C(=O)NC1CC1 [Telaprevir]	-5.16
C[C@H](Cn1cnc2c(N)ncnc21)OCP(=O)(O)O [Tenofovir]	-1.3311
CN1C(C(=O)Nc2ccccn2)=C(O)c2sccc2S1(=O)=O [Tenoxicam]	-4.379
CCC(=O)O[C@H]1CC[C@H]2[C@@H]3CCC4=CC(=O)CC[C@]4(C)[C@H]3CC[C@]12C [Testosterone propionate]	-5.367
C[C@]12CC[C@H]3[C@@H](CCC4=CC(=O)CC[C@@]43C)[C@@H]1CC[C@@H]2O [Testosterone]	-4.091
Cn1cnc2c1c(=O)[nH]c(=O)n2C [Theobromine]	-2.737
COc1c(O[C@@H]2O[C@H](CO)[C@@H](O)[C@H](O)[C@H]2O)cc2c(c1OC)-c1ccc(SC)c(=O)cc1[C@@H](NC(C)=O)CC2 [Thiocolchicoside]	-1.751
CCCSc1nc(N[C@@H]2C[C@H]2c2ccc(F)c(F)c2)c2nnn([C@@H]3C[C@H](OCCO)[C@@H](O)[C@H]3O)c2n1 [Ticagrelor]	-4.718
Cc1ccc(C(=O)c2ccc(CC(=O)O)n2C)cc1 [Tolmetin]	-3.064
CC[C@@]1(O)C(=O)OCc2c1cc1n(c2=O)Cc2cc3c(CN(C)C)c(O)ccc3nc2-1 [Topotecan]	-2.625
Cc1nnc2n1-c1ccc(Cl)cc1C(c1ccccc1Cl)=NC2 [Triazolam]	-4.879
